# Test results as given in patent US5604226A, “Pyridazinone derivatives, processes for production thereof and use thereof” (Nihon Nohyaku Co., Ltd., priority 1993, dated 1997).
# Columns and labels:
# [1] = test system: Platelet aggregation (ADP, rabbit platelet rich plasma); experiment: Platelet aggregation inhibition in rabbit PRP, ADP-induced, Born's turbidimetry (Experiment 1); type: cell-based; conditions: Oryctolagus cuniculus, 0.05 h, ADP 2 to 4 μM, 3 min incubation, read-out: Aggregation Inhibition Rate
# Method: Blood was collected from the ear vein of rabbit, together with 1/10 volume sodium citrate. Centrifugation at 1,200 rpm for 10 minutes gave the supernatant which was made platelet rich plasma (PRP). The blood was further centrifuged at 3,000 rpm for 10 minutes to give platelet poor plasma (PPP). The platelet count of PRP was adjusted to 300,000/μl with PPP, which was provided for the test. Platelet aggregation was determined with aggregometer (HEMATRACERVI, Niko Bioscience Co.) based on Born's turbidimetry. That is, 200 μl of PRP was charged in a cell and 1 μl of a drug solution dissolved in dimethylsulfoxide was added thereto. After incubation for 3 minutes, ADP was added in a concentration of 2 to 4 μM to cause aggregation. Change in transmittance in the cell was then monitored. The results are shown in Table 2, in terms of aggregation inhibition rate which was determined by comparing a transmittance of control with that obtained at the maximum aggregation on an aggregation curve when the transmittance of PRP was made 0% and the transmittance of PPP was made 100%.
# [2] = test system: ADP-inducing platelet aggregation; experiment: Rabbit exo-vivo test, ADP-inducing platelet aggregation after oral administration (Experiment 2); type: in vivo, Japanese white rabbits
# Method: Japanese white rabbits weighing 3.0-4.0 kg were fasted for 18 hours. A drug suspension in 2% gum arabic aqueous solution was orally given to the animal in a definite dose. Blood was collected 1 and 4 hours after. PRP was prepared in a manner similar to Experiment 1 and ADP-inducing platelet aggregation function was determined. An inhibition rate was calculated based on an aggregation rate of ADP prior to administration of the compound.
# [3] = test system: thrombocytopenia in mice (collagen-induced, platelet count); experiment: Activity of preventing thrombocytopenia in mice, collagen i.v. (Experiment 3); type: in vivo, male ddY mice; conditions: Mus musculus, 3.0 mg/kg oral, 1 hour before collagen 0.5 mg/kg i.v., * p = 5%, ** p = 1%, *** p = 0.1%, read-out: Average Inhibition Rate (platelet count; normal mouse 100, control mouse 0)
# Method: Activity of preventing thrombocytopenia in mice:
# Collagen (Holm Co.) diluted with physiological saline was intravenously given through the vein to male ddY mice of 6 weeks old, weighing 28-31 g, which had been fasted for 4-5 hours, in a dose of 0.5 mg/kg. Five minutes after, blood was collected from the lower thigh vein under pentobarbital anesthesia through a plastic syringe treated with heparin containing 3.8% sodium citrate. The drug was orally given an hour before the collagen administration. The platelet count was measured with Sysmex E-4000. The inhibition activity is shown in terms of percentage of the platelet count when the platelet count of normal mouse was made 100 and the platelet count of control mouse was made 0.
compound,measurement,setting,value
"COc1ccc(CNc2c(OCC[S+]([O-])c3ccccc3)n[nH]c(=O)c2Br)cc1OC (stereo not shown) [Compound 8, 4-bromo-5-(3,4-dimethoxyphenylmethylamino)-6-[2-(phenylsulfinyl)ethyloxy]-3(2H)-pyridazinone]",inhibition at 1 µg/mL,[1]; 10^-6 g/ml,100%
same,inhibition at 0.1 µg/mL,[1]; 10^-7 g/ml,82%
same,Average Inhibition Rate,"[2]; 3 mg/kg oral, 1 Hour",48%
same,Average Inhibition Rate,"[2]; 3 mg/kg oral, 4 Hours",23%
same,Average Inhibition Rate,"[2]; 30 mg/kg oral, 1 Hour",72%
same,Average Inhibition Rate,"[2]; 30 mg/kg oral, 4 Hours",70%
same,inhibition in vivo at 3 mg/kg,[3],45%
